The values below come from patent US8481495B2 (TetraLogic Pharmaceuticals Corporation, priority 2009, dated 2013).

SMILES strings stand for the structures. Some results are limits rather than exact numbers.

The target in test [1] is T1, XIAP BIR-3 (Homo sapiens, UniProt P98170).
T1 construct: 40 nM of the respective IAP BIR3
Put plainly: Fluorescence polarization binding to XIAP BIR-3 with labeled peptide AbuRPF-K(5-Fam)-NH2. To be noted: XIAP BIR-3, 40 nM BIR3, 5 nM labeled peptide, 15 min RT, pH 7.5; read-out: XIAP, nM (binding affinity KD, as range). The method, then: (§1) The binding affinities of the compounds are reported as a KD value (μM). Briefly, various concentrations of test peptides were mixed with 5 nM of the fluorescently labeled peptide (i.e., a mutated N-terminal Smac peptide-AbuRPF-K(5-Fam)-NH2) and 40 nM of the respective IAP BIR3 for 15 min at RT in […] of 0.1M Potassium Phosphate buffer, pH 7.5 containing […] bovine g-globulin. Following incubation, the polarization values (mP) were measured on a Victor2V™ (available from PerkinElmer® Life Sciences) using a 485 nm excitation filter and a 520 nm emission filter. The reported binding affinities (KD values) are supplied as ranges (A=<0.1 μM, B=0.1 μM to 1 μM, C=>1 μM to 10 μM, D=>10 μM).

The subject of test [2] is SK-OV-3 cells. Put plainly: MTT cell growth inhibition assay in ovarian cancer cell line SK-OV-3. To be noted: Homo sapiens, 72 hrs incubation, read-out: SKOV3, nM (CC50, concentration giving 50% cell survival, as range). In kind it is cell-based. The procedure: Compounds of the invention also were tested for their ability to inhibit the growth of an ovarian cancer cell line, SK-OV-3. A known assay previously used for measuring cell growth (as described in Hansen, M. B., Nielsen, S. E., and Berg, K. (1989) J. Immunol. Methods 119, 203-210 and incorporated herein by reference in its entirety) was used. Briefly, SK-OV-3 cells are seeded in 96-well plates in McCoy's medium containing 10% fetal bovine serum albumin (5,000 per well) and incubated overnight at 37° C. The next day, test compounds are added at various concentrations (0.003-10 μM) and the plates are incubated at 37° C. for an additional 72 hrs. This incubation time was considered to be optimal for measuring inhibitory effects of the different compounds tested. 50 microliters of 5 mg/mL MTT reagent is added to each well and the plates are incubated at 37° C. for another three (3) hours. At the end of the three (3) hour incubation period, 50 microliters of DMSO is added to each well to dissolve cells and the optical density (OD) of the wells is measured with a microplate reader (Victor^2 1420™, Wallac, Finland) at 535 nm. Cell survival (CS) was calculated using the following equation: CS=(OD treated well/mean OD control wells)×100%.
The CC50 (reported in the following tables), is defined as the drug concentration that results in 50% cell survival (CS), and is derived by calculating the point where the dose-response curve crosses the 50% CS point using GraphPad Prism® graphing software. The reported CC50 values are supplied as ranges (A=<0.1 μM, B=0.1 μM to 1 μM, C=>1 μM to 10 μM, D=>10 μM).

The target of test [3] is T2, cIAP-1 BIR-3 (Homo sapiens, UniProt Q13490).
T2 construct: 40 nM of the respective IAP BIR3
T2 sequence (Q13490 253-363 limits assumed): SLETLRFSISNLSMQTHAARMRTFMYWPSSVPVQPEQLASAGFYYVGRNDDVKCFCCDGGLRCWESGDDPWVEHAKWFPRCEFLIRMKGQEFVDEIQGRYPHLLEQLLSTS
Put plainly: Fluorescence polarization binding to cIAP-1 BIR-3 with labeled peptide AbuRPF-K(5-Fam)-NH2. To be noted: cIAP-1 BIR-3, 40 nM BIR3, 5 nM labeled peptide, 15 min RT, pH 7.5; read-out: cIAP1, nM (binding affinity KD, as range). The procedure: as §1

T1 sequence (P98170 241-356 limits assumed): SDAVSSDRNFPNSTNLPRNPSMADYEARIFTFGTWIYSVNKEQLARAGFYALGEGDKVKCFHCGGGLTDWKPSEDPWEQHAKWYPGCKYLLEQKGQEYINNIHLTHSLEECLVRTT

In the case of `CN[C@@H](C)C(=O)N[C@H](C(=O)N1CC[C@@H]2[C@H]1[C@@H](C(=O)N[C@H]1CCCc3ccccc31)CN2S(C)(=O)=O)C1CCCCC1` [Example 4, 4-[2-Cyclohexyl-2-(2-methylamino-propionylamino)-acetyl]-1-methanesulfonyl-octahydro-pyrrolo[3,2-b]pyrrole-3-carboxylic acid (1,2,3,4-tetrahydro-naphthalen-1-yl)-amide], the Kd in test [1] and in test [3] was less than 100 nM each time. The CC50 in test [2] fell in the range of 100 to 1000 nM.

Turning to `CNC(C)C(=O)NC(C(=O)N1CCC2C1C(C(=O)NC1CCCc3ccccc31)CN2C(=O)C1CC1)C1CCCCC1` (stereo not drawn) [Example 33, 4-[2-Cyclohexyl-2-(2-methylamino-propionylamino)-acetyl]-1-cyclopropanecarbonyl-octahydro-pyrrolo[3,2-b]pyrrole-3-carboxylic acid (1,2,3,4-tetrahydro-naphthalen-1-yl)-amide], the Kd in test [1] and in test [3] was less than 100 nM throughout. Moreover, the CC50 in test [2] was less than 100 nM.

Regarding `CN[C@@H](C)C(=O)N[C@H](C(=O)N1CC[C@@H]2[C@H]1[C@@H](C(=O)Nc1ccc3ccccc3c1)CN2S(C)(=O)=O)C(C)(C)C` [Example 25, 4-[3,3-Dimethyl-2-(2-methylamino-propionylamino)-butyryl]-1-methanesulfonyl-octahydro-pyrrolo[3,2-b]pyrrole-3-carboxylic acid naphthalen-2-ylamide], the Kd in test [1] and in test [3] was less than 100 nM in each case. Besides, the CC50 in test [2] is less than 100 nM.

On to `CN[C@@H](C)C(=O)N[C@H](C(=O)N1CC[C@H]2NC[C@@H](C(=O)Nc3ccccc3)[C@H]21)C1CCCCC1` [Example 32], for which the figures for the Kd in test [1] and in test [3] were 100 to 1000 nM and less than 100 nM, respectively. For the same compound, the CC50 in test [2] was in the range of 1000 to 10000 nM.

For the compound `CN[C@@H](C)C(=O)N[C@H](C(=O)N1CC[C@@H]2[C@H]1[C@@H](C(=O)Nc1ccc3ccccc3n1)CN2S(C)(=O)=O)C(C)(C)C` [Example 52, 4-[3,3-Dimethyl-2-(2-methylamino-propionylamino)-butyryl]-1-methanesulfonyl-octahydro-pyrrolo[3,2-b]pyrrole-3-carboxylic acid quinolin-2-ylamide], the Kd was 100 to 1000 nM in test [1] and less than 100 nM in test [3]. The CC50 in test [2] is less than 100 nM.

As to `CN[C@@H](C)C(=O)N[C@H](C(=O)N1CC[C@@H]2[C@H]1[C@@H](C(=O)N[C@H]1CCc3ccccc31)CN2S(C)(=O)=O)C1CCCCC1` [Example 12, 4-[2-Cyclohexyl-2-(2-methylamino-propionylamino)-acetyl]-1-methanesulfonyl-octahydro-pyrrolo[3,2-b]pyrrole-3-carboxylic acid indan-1-ylamide], the Kd is 100 to 1000 nM in test [1] and less than 100 nM in test [3]. In addition, the CC50 in test [2] fell in the range of 100 to 1000 nM.

Take `CN[C@@H](C)C(=O)N[C@H](C(=O)N1CC[C@@H]2[C@H]1[C@@H](C(=O)Nc1cccc3ncccc13)CN2S(C)(=O)=O)C(C)(C)C` [Example 47, 4-[3,3-Dimethyl-2-(2-methylamino-propionylamino)-butyryl]-1-methanesulfonyl-octahydro-pyrrolo[3,2-b]pyrrole-3-carboxylic acid quinolin-5-ylamide]: the Kd in test [1] and in test [3] was less than 100 nM throughout. The CC50 in test [2] was less than 100 nM.

`CN[C@@H](C)C(=O)N[C@H](C(=O)N1CC[C@@H]2[C@H]1[C@@H](C(=O)N[C@@H](Cc1ccccc1)C(=O)O)CN2S(C)(=O)=O)C1CCCCC1` [Example 30, 2-({4-[2-Cyclohexyl-2-(2-methylamino-propionylamino)-acetyl]-1-methanesulfonyl-octahydro-pyrrolo[3,2-b]pyrrole-3-carbonyl}-amino)-3-phenyl-propionic acid]: the Kd in test [1] was 1000 to 10000 nM; in test [3], less than 100 nM. Besides, the CC50 in test [2] lay within 1000 to 10000 nM.

Take `CN[C@@H](C)C(=O)N[C@H](C(=O)N1CC[C@@H]2[C@H]1[C@@H](C(=O)N[C@@H]1CCCc3ccccc31)CN2S(C)(=O)=O)C(C)(C)C` [Example 27, 4-[3,3-Dimethyl-2-(2-methylamino-propionylamino)-butyryl]-1-methanesulfonyl-octahydro-pyrrolo[3,2-b]pyrrole-3-carboxylic acid (1,2,3,4-tetrahydro-naphthalen-1-yl)-amide]: the Kd in test [1] and in test [3] was less than 100 nM throughout. In test [2], the CC50 was less than 100 nM.

Consider `CN[C@@H](C)C(=O)N[C@H](C(=O)N1CC[C@@H]2[C@H]1[C@@H](C(=O)Nc1ccccc1)CN2S(C)(=O)=O)C1CCCCC1` [Example 8, 4-[2-Cyclohexyl-2-(2-methylamino-propionylamino)-acetyl]-1-methanesulfonyl-octahydro-pyrrolo[3,2-b]pyrrole-3-carboxylic acid phenylamide], for which the equilibrium dissociation constant (Kd) is 100 to 1000 nM in test [1] and less than 100 nM in test [3]. For the same compound, the CC50 in test [2] was less than 100 nM.

In the case of `CN[C@@H](C)C(=O)N[C@H](C(=O)N1CC[C@@H]2[C@H]1[C@@H](C(=O)NC1CCCCC1)CN2S(C)(=O)=O)C1CCCCC1` [Example 5, 4-[2-Cyclohexyl-2-(2-methylamino-propionylamino)-acetyl]-1-methanesulfonyl-octahydro-pyrrolo[3,2-b]pyrrole-3-carboxylic acid cyclohexylamide], the results for the Kd in test [1] and in test [3] were 1000 to 10000 nM and less than 100 nM, respectively. Besides, the CC50 in test [2] was in the range of 1000 to 10000 nM.

Turning to `CN[C@@H](C)C(=O)N[C@H](C(=O)N1CC[C@@H]2[C@H]1[C@@H](C(=O)NCc1ccccc1)CN2S(C)(=O)=O)C(C)(C)C` [Example 20, 4-[3,3-Dimethyl-2-(2-methylamino-propionylamino)-butyryl]-1-methanesulfonyl-octahydro-pyrrolo[3,2-b]pyrrole-3-carboxylic acid benzylamide], the Kd in test [1] and in test [3] was less than 100 nM in each case. Moreover, in test [2], the CC50 is less than 100 nM.

Regarding `CN[C@@H](C)C(=O)N[C@H](C(=O)N1CC[C@@H]2[C@H]1[C@@H](C(=O)N[C@@H](C)C1CCCCC1)CN2S(C)(=O)=O)C(C)(C)C` [Example 28, 4-[3,3-Dimethyl-2-(2-methylamino-propionylamino)-butyryl]-1-methanesulfonyl-octahydro-pyrrolo[3,2-b]pyrrole-3-carboxylic acid (1S-cyclohexyl-ethyl)-amide], the Kd in test [1] and in test [3] was less than 100 nM each time. The CC50 in test [2] is less than 100 nM.

With `CN[C@@H](C)C(=O)N[C@H](C(=O)N1CC[C@@H]2[C@H]1[C@@H](C(=O)N[C@@H]1CCCc3ccccc31)CN2c1ncccn1)C1CCCCC1` [Example 43, 4-[2-Cyclohexyl-2-(2-methylamino-propionylamino)-acetyl]-1-pyrimidin-2-yl-octahydro-pyrrolo[3,2-b]pyrrole-3-carboxylic acid (1,2,3,4-tetrahydro-naphthalen-1-yl)-amide], the Kd is 100 to 1000 nM in test [1] and less than 100 nM in test [3]. The CC50 in test [2] is less than 100 nM.

Take `CN[C@@H](C)C(=O)N[C@H](C(=O)N1CC[C@@H]2[C@H]1[C@@H](C(=O)NCCc1ccccc1)CN2S(C)(=O)=O)C1CCCCC1` [Example 16, 4-[2-Cyclohexyl-2-(2-methylamino-propionylamino)-acetyl]-1-methanesulfonyl-octahydro-pyrrolo[3,2-b]pyrrole-3-carboxylic acid-phenethyl-amide]: the Kd in test [1] and in test [3] was less than 100 nM in each case. In addition, the CC50 in test [2] fell in the range of 100 to 1000 nM.

For the compound `CN[C@@H](C)C(=O)N[C@H](C(=O)N1CC[C@@H]2[C@H]1[C@@H](C(=O)N[C@H](C)c1ccccc1)CN2S(C)(=O)=O)C1CCCCC1` [Example 7, 4-[2-Cyclohexyl-2-(2-methylamino-propionylamino)-acetyl]-1-methanesulfonyl-octahydro-pyrrolo[3,2-b]pyrrole-3-carboxylic acid (1-phenyl-ethyl)-amide], the Kd in test [1] was 100 to 1000 nM; in test [3], less than 100 nM. In addition, the CC50 in test [2] was 100 to 1000 nM.
